In patent US7704995B2 (Exelixis, Inc., priority 2003, dated 2010) one finds IC50 data, which are given here for 32 compounds.

The test deals with T1, Chk1 (Homo sapiens, UniProt O14757).
T1 construct: purchased Upstate Biotechnology
T1 sequence (O14757 1-476): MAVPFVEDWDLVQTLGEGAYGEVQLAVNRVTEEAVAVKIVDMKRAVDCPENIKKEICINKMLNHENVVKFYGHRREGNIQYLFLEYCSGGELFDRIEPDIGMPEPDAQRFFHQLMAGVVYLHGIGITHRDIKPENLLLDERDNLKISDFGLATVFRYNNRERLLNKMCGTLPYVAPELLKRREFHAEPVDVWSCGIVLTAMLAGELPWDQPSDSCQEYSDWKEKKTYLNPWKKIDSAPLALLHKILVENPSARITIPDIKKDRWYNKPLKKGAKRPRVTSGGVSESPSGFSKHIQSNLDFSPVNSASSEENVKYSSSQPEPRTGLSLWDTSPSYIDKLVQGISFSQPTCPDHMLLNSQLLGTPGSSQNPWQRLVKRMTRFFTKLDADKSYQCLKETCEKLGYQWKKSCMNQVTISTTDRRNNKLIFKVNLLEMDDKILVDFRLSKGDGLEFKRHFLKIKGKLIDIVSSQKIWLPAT
The experiment in a line: Chk1 kinase assay: incorporation of γ-33P ATP into immobilized myelin basic protein. The class given is biochemical. The note with it: Table 11; Chk1 only; read-out: Chk1 IC50. In outline:
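Incorporation of γ-33P into myelin basic protein coated on plates was scintillation-counted after 1 h at room temperature, duplicate points. Unlabeled ATP was 10 μM with 10 nM Chk1, 30 μM with 20 nM Chk2; buffer Hepes pH 7.6, MgCl2, DTT, 1% DMSO. Output IC50, optionally converted to Ki.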
Regarding `CNC(=O)c1nc(-c2cccc(CNC3CCc4cc(-c5ccsc5)ccc43)c2)cnc1N` (centres unmarked) [Example 481, 3-amino-N-methyl-6-[3-({[5-(3-thienyl)-2,3-dihydro-1H-inden-1-yl]amino}methyl)phenyl]pyrazine-2-carboxamide], the IC50 (as a rule, the concentration needed to halve the response being measured) was under 0.05 µM.

With `CNC(=O)c1nc(-c2cccc(CN[C@H]3CCc4c(F)cccc43)c2)cnc1N` [Example 482, 3-amino-6-[3-({[(1S)-4-fluoro-2,3-dihydro-1H-inden-1-yl]amino}methyl)phenyl]-N-methylpyrazine-2-carboxamide], the IC50 was under 0.05 µM.

For `CNC(=O)c1nc(-c2cccc(CN[C@H]3CCc4cc(F)cc(F)c43)c2)cnc1N` [Example 483, 3-amino-6-[3-({[(1S)-5,7-difluoro-2,3-dihydro-1H-inden-1-yl]amino}methyl)phenyl]-N-methylpyrazine-2-carboxamide], the IC50 lay within 0.05 to 1 µM.

Turning to `CNC(=O)c1nc(-c2cccc(CNC3CCc4c(F)ccc(Br)c43)c2)cnc1N` (centres unmarked) [Example 484, 3-amino-6-(3-{[(7-bromo-4-fluoro-2,3-dihydro-1H-inden-1-yl)amino]methyl}phenyl)-N-methylpyrazine-2-carboxamide], the IC50 lay in the range of 0.05 to 1 µM.

Regarding `CNC(=O)c1nc(-c2cccc(CNC3CCc4ccc(Cl)cc43)c2)cnc1N` (centres unmarked) [Example 485, 3-amino-6-(3-{[(6-chloro-2,3-dihydro-1H-inden-1-yl)amino]methyl}phenyl)-N-methylpyrazine-2-carboxamide], the IC50 lay in the range of 0.05 to 1 µM.

With `CNC(=O)c1nc(-c2cccc(CNC3CCc4c(Cl)cc(Cl)cc43)c2)cnc1N` (centres unmarked) [Example 486, 3-amino-6-(3-{[(4,6-dichloro-2,3-dihydro-1H-inden-1-yl)amino]methyl}phenyl)-N-methylpyrazine-2-carboxamide], the IC50 lay within 0.05 to 1 µM.

In the case of `CNC(=O)c1nc(-c2cccc(CNC3CCc4c(Cl)cccc43)c2)cnc1N` (centres unmarked) [Example 487, 3-amino-6-(3-{[(4-chloro-2,3-dihydro-1H-inden-1-yl)amino]methyl}phenyl)-N-methylpyrazine-2-carboxamide], the IC50 was under 0.05 µM.

`CCNC(=O)c1nc(-c2cccc(CN[C@H]3CCc4ccccc43)c2)cnc1N` [Example 488, 3-amino-6-(3-{[(1S)-2,3-dihydro-1H-inden-1-ylamino]methyl}phenyl)-N-ethylpyrazine-2-carboxamide]: the IC50 was 0.05 to 1 µM.

Turning to `CCNC(=O)c1nc(-c2cccc(CNC3CCc4cc(F)cc(F)c43)c2)cnc1N` (centres unmarked) [Example 489, 3-amino-6-(3-{[(5,7-difluoro-2,3-dihydro-1H-inden-1-yl)amino]methyl}phenyl)-N-ethylpyrazine-2-carboxamide], the IC50 was in the range of 0.05 to 1 µM.

Consider `CNC(=O)c1nc(-c2cccc(CN[C@H]3CCc4cc(-c5cccs5)ccc43)c2)cnc1N` [Example 490, 3-amino-N-methyl-6-[3-({[(1S)-5-(2-thienyl)-2,3-dihydro-1H-inden-1-yl]amino}methyl)phenyl]pyrazine-2-carboxamide], for which the IC50 was under 0.05 µM.

In the case of `CNC(=O)c1nc(-c2cccc(CNC3CCc4cc(-c5ccccc5)ccc43)c2)cnc1N` (centres unmarked) [Example 491, 3-amino-N-methyl-6-(3-{[(5-phenyl-2,3-dihydro-1H-inden-1-yl)amino]methyl}phenyl)pyrazine-2-carboxamide], the IC50 lay within 0.05 to 1 µM.

`CNC(=O)c1nc(-c2cccc(CNC3CCc4c(Br)cccc43)c2)cnc1N` (centres unmarked) [Example 492, 3-amino-6-(3-{[(4-bromo-2,3-dihydro-1H-inden-1-yl)amino]methyl}phenyl)-N-methylpyrazine-2-carboxamide]: the IC50 is under 0.05 µM.

`CNC(=O)c1nc(-c2cccc(CNC3CCc4c(-c5ccccc5)cccc43)c2)cnc1N` (centres unmarked) [Example 493, 3-amino-N-methyl-6-(3-{[(4-phenyl-2,3-dihydro-1H-inden-1-yl)amino]methyl}phenyl)pyrazine-2-carboxamide]: the IC50 is under 0.05 µM.

As to `CNC(=O)c1nc(-c2cccc(CNC3CCc4c(-c5cccs5)cccc43)c2)cnc1N` (centres unmarked) [Example 494, 3-amino-N-methyl-6-[3-({[4-(2-thienyl)-2,3-dihydro-1H-inden-1-yl]amino}methyl)phenyl]pyrazine-2-carboxamide], the IC50 was under 0.05 µM.

As for `CNC(=O)c1nc(-c2cccc(CNC3CCc4ccc(-c5cccs5)cc43)c2)cnc1N` (centres unmarked) [Example 495, 3-amino-N-methyl-6-[3-({[6-(2-thienyl)-2,3-dihydro-1H-inden-1-yl]amino}methyl)phenyl]pyrazine-2-carboxamide], the IC50 fell in the range of 0.05 to 1 µM.

On to `CNC(=O)c1nc(-c2cccc(CNC3CCc4cc(-c5cc(C)cs5)ccc43)c2)cnc1N` (centres unmarked) [Example 496, 3-amino-N-methyl-6-[3-({[5-(4-methyl-2-thienyl)-2,3-dihydro-1H-inden-1-yl]amino}methyl)phenyl]pyrazine-2-carboxamide], for which the IC50 is under 0.05 µM.

Take `CNC(=O)c1nc(-c2cccc(CN[C@@H]3CCc4cc(-c5ccccc5)ccc4C3)c2)cnc1N` [Example 497, 3-amino-N-methyl-6-[3-({[(2R)-6-phenyl-1,2,3,4-tetrahydronaphthalen-2-yl]amino}methyl)phenyl]pyrazine-2-carboxamide]: the IC50 lay in the range of 0.05 to 1 µM.

Consider `CNC(=O)c1nc(-c2ccc3ccccc3c2)cnc1N` [Example 498, 3-amino-N-methyl-6-naphthalen-2-ylpyrazine-2-carboxamide], for which the IC50 lay within 0.05 to 1 µM.

Take `CNC(=O)c1nc(-c2cccc(CN[C@H]3CCC[C@@H]3OCc3ccccc3)c2)cnc1N` [Example 499, 3-amino-N-methyl-6-{3-[({(1S,2S)-2-[(phenylmethyl)oxy]cyclopentyl}amino)methyl]phenyl}pyrazine-2-carboxamide]: the IC50 was in the range of 0.05 to 1 µM.

Take `CNC(=O)c1nc(-c2cccc(CNC3CCCC3)c2)cnc1N` [Example 500, 3-amino-6-{3-[(cyclopentylamino)methyl]phenyl}-N-methylpyrazine-2-carboxamide]: the IC50 was in the range of 0.05 to 1 µM.

On to `CNC(=O)c1nc(-c2cccc(CNC3CCc4ccc(Br)cc43)c2)cnc1N` (centres unmarked) [Example 501, 3-amino-6-(3-{[(6-bromo-2,3-dihydro-1H-inden-1-yl)amino]methyl}phenyl)-N-methylpyrazine-2-carboxamide], for which the IC50 lay in the range of 0.05 to 1 µM.

Take `CNC(=O)c1nc(-c2cccc(CNC3CCc4cccc(F)c43)c2)cnc1N` (centres unmarked) [Example 502, 3-amino-6-(3-{[(7-fluoro-2,3-dihydro-1H-inden-1-yl)amino]methyl}phenyl)-N-methylpyrazine-2-carboxamide]: the IC50 lay within 0.05 to 1 µM.

On to `CNC(=O)c1nc(-c2cnc3ccccc3c2)cnc1N` [Example 503, 3-amino-N-methyl-6-quinolin-3-ylpyrazine-2-carboxamide], for which the IC50 fell in the range of 1 to 10 µM.

For the compound `CNC(=O)c1nc(-c2cccc(Cn3ccnc3)c2)cnc1N` [Example 504, 3-amino-6-[3-(1H-imidazol-1-ylmethyl)phenyl]-N-methylpyrazine-2-carboxamide], the IC50 fell in the range of 0.05 to 1 µM.

As to `CNC(=O)c1nc(-c2cccc(CNC3CCc4cc(OCCN5CCOCC5)ccc43)c2)cnc1N` (centres unmarked) [Example 505, 3-amino-N-methyl-6-{3-[({5-[(2-morpholin-4-ylethyl)oxy]-2,3-dihydro-1H-inden-1-yl}amino)methyl]phenyl}pyrazine-2-carboxamide], the IC50 fell in the range of 0.05 to 1 µM.

On to `CNC(=O)c1nc(-c2cccc(CN[C@@H]3CCC[C@H]3OCc3ccccc3)c2)cnc1N` [Example 506, 3-amino-N-methyl-6-{3-[({(1R,2R)-2-[(phenylmethyl)oxy]cyclopentyl}amino)methyl]phenyl}pyrazine-2-carboxamide], for which the IC50 was 0.05 to 1 µM.

As for `CNC(=O)c1nc(-c2cccc(CNC3COc4ccccc43)c2)cnc1N` (centres unmarked) [Example 507, 3-amino-6-{3-[(2,3-dihydro-1-benzofuran-3-ylamino)methyl]phenyl}-N-methylpyrazine-2-carboxamide], the IC50 lay within 0.05 to 1 µM.

Regarding `CNC(=O)c1nc(-c2cccc(CNC3CCc4cc(OCC#N)ccc43)c2)cnc1N` (centres unmarked) [Example 508, 3-amino-6-{3-[({5-[(cyanomethyl)oxy]-2,3-dihydro-1H-inden-1-yl}amino)methyl]phenyl}-N-methylpyrazine-2-carboxamide], the IC50 lay within 0.05 to 1 µM.

For `CNC(=O)c1cc(-c2cccc(CN[C@H]3CCc4ccccc43)c2)cnc1N` [Example 509, 2-amino-5-(3-{[(1S)-2,3-dihydro-1H-inden-1-ylamino]methyl}phenyl)-N-methylpyridine-3-carboxamide], the IC50 fell in the range of 0.05 to 1 µM.

For the compound `CNC(=O)c1nc(-c2cccc(CNC3CCc4cc(-c5ccc(C)cc5)ccc43)c2)cnc1N` (centres unmarked) [Example 510, 3-amino-N-methyl-6-[3-({[5-(4-methylphenyl)-2,3-dihydro-1H-inden-1-yl]amino}methyl)phenyl]pyrazine-2-carboxamide], the IC50 was in the range of 0.05 to 1 µM.

For `CNC(=O)c1nc(-c2cccc(CNC(CN(C)C)c3ccccc3)c2)cnc1N` (centres unmarked) [Example 511, 3-amino-6-[3-({[2-(dimethylamino)-1-phenylethyl]amino}methyl)phenyl]-N-methylpyrazine-2-carboxamide], the IC50 was in the range of 0.05 to 1 µM.

For the compound `CNC(=O)c1nc(-c2cccc(CNC3CCc4cc(-n5cncn5)ccc43)c2)cnc1N` (centres unmarked) [Example 512, 3-amino-N-methyl-6-[3-({[5-(1H-1,2,4-triazol-1-yl)-2,3-dihydro-1H-inden-1-yl]amino}methyl)phenyl]pyrazine-2-carboxamide], the IC50 was in the range of 0.05 to 1 µM.
